Measured values from patent US20030229114A1, “Pyrroloquinoline quinone drugs as a neuroprotectant and methods of use thereof” (priority 2002, published 2003).
Several values for one entry are separate records, joined by “and”; a condition that tells them apart may be missing. Equal entries are not always repeated. Entries after “also recorded” stand apart in the source; their conditions may differ.

Test system: cultured rat forebrain neurons
Assay: Assay of intracellular ATP in neuronal cultures (firefly luciferase)
Format: cell-based
Procedure: Medium was not subsequently changed.
Experiments were carried out exclusively in EBSS. […] PQQ was directly dissolved in EBSS.
The Bioluminescent Somatic Cell Assay kit from Sigma (catalog No. FL-ASC) was used for assay of ATP as previously described (Rosenberg et al., 2000). At selected time points after addition of drug or vehicle, medium was removed, and then replaced with 200 μl of cell lysis agent. After brief agitation, the medium was transferred to microcentrifuge tubes that contained 200 μl of water. The tubes were placed on wet ice until assay. ATP assay mix was used at 25-fold dilution, and 100 μl of the extract was assayed.

In the case of `O=C(O)c1cc(C(=O)O)c2c(n1)C(=O)C(=O)c1cc(C(=O)O)[nH]c1-2` [PQQ, Pyrroloquinoline quinone], the “Effect on ATP depletion caused by nitric oxide donors” value (PQQ 100 μM, DEA/NO, DPT/NO 1 mM) is reported as “did not block; also recorded: no effect”, the “Effect on ATP depletion caused by ONOO−” value (PQQ 100 μM, ONOO− 100 μM) is reported as “no effect” and the “Effect on ATP depletion induced by SIN-1” value (PQQ 100 μM, SIN-1 1 mM, 1 hr) is reported as “significantly blocked”. The “Intracellular ATP” value (of control values, 1 hr ONOO− 100 μM with PQQ 100 μM) was 42±5.4% and 43.8±4.7%, the “Intracellular ATP” value (of control values, 1 hr SIN-1 1 mM with PQQ 100 μM) was 84.4±13.9% and 93±12.6% and the “Intracellular ATP” value (one hour, DEA/NO 1 mM in the presence of PQQ 100 μM) was 42.9±19.6%. For the same compound, the “Intracellular ATP” value (one hour, DPT/NO 1 mM in the presence of PQQ 100 μM) was 72.7±7.9%.
